Data as given in US20050059725A1, “Methods of using and preparing thiolutin dioxide” (Aventis Pharma Deutschland GmbH, priority 2001, published 2005).

Assays:
Type in all cases: biochemical
enkephalinase = enkephalinase (Homo sapiens, UniProt P08473); assay: Selectivity against other zinc-containing metalloproteases: enkephalinase; conditions: selectivity statement
[1] = test system: angiotensin converting enzymes; assay: Selectivity against other zinc-containing metalloproteases: angiotensin converting enzymes; conditions: selectivity statement
neurolysin = neurolysin (Homo sapiens, UniProt Q9BYT8); assay: Neurolysin inhibition assay (fluorogenic substrate, 384-well); conditions: substrate Mcc-Pro-Leu-Gly-D-Lys(Dnp)-OH 4 μM, 30° C., 30 min, Tris buffer pH 7.5
Procedure: An assay was performed on a CyBio pipetting system in a 384-well plate format in a final assay volume of 16 μl. In brief, 4 μl of appropriately diluted microbial extracts (dilution in 50 mM Tris buffer, pH 7.5) were distributed in wells of test plates (Greiner, white 384-small volume well plates). Thereafter, 4 μl of neurolysin (pre-diluted 1:5, 360 ng of protein) were added to each well. After a 10 minute pre-incubation of the samples and the enzyme at room temperature, the reaction was initiated by the addition of 8 μl of substrate (Mcc-Pro-Leu-Gly-D-Lys (Dnp)—OH, CALBIOCHEM) in Tris buffer. The final test concentration of the substrate was 4 μM.
After pipetting, the plates were immediately placed in a fluorometer (SpectraFluorplus, SLT) and the initial amount of fluorescence was read (λex: 360 nm/λem405 nm). The reaction was then allowed to proceed at 30° C. for 30 min, and a final fluorescence reading was taken.
The data are first blank corrected. Then, after subtracting the values at the zero time point from the respective values after 30 min, sample inhibition activity was expressed as 100−(Net Intensity compound/Net Intensity control)×100(%)
Each test plate contained a reasonable number of positive controls and blanks (buffer instead of enzyme).

Sequence of neurolysin (Q9BYT8 38-704): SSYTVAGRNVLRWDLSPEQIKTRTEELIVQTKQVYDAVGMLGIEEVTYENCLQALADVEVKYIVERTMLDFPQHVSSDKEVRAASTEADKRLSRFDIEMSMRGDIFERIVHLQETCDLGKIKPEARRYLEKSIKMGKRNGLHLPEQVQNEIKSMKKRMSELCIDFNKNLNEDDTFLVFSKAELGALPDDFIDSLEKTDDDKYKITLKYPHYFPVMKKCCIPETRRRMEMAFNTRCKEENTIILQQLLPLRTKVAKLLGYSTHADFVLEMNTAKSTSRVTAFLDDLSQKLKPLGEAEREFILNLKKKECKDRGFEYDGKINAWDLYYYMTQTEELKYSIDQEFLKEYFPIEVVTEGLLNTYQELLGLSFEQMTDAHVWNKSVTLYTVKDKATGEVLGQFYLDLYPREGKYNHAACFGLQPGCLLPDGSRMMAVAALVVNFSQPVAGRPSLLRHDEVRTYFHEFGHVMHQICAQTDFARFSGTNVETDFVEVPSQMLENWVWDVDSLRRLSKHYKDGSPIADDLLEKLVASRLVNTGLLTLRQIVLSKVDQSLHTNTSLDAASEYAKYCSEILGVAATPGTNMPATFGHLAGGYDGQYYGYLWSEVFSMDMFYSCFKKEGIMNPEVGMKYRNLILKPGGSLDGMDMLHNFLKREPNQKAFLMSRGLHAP
Sequence of enkephalinase (P08473 whole entry, species assumed): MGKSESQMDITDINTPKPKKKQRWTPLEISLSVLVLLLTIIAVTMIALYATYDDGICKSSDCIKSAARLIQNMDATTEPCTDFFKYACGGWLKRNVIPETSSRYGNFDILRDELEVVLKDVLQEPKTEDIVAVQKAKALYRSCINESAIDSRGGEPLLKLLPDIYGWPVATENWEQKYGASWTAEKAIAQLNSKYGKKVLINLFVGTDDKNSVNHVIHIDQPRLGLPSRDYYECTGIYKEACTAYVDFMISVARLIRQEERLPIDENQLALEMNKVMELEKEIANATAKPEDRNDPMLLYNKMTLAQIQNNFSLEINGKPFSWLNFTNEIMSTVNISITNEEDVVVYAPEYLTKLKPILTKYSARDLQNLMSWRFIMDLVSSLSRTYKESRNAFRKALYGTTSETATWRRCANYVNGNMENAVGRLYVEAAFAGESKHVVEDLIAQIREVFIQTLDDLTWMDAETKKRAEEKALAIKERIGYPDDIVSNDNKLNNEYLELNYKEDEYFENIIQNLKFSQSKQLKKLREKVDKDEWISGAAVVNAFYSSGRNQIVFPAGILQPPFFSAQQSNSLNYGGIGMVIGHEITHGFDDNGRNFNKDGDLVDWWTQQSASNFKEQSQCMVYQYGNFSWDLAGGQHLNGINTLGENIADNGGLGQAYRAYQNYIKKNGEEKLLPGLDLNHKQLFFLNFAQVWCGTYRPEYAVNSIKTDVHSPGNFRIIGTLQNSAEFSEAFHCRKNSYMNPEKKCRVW

blocking of enkephalinase (enkephalinase): does not block
blocking of angiotensin converting enzymes [1]: does not block
IC50 (neurolysin): 600 nM
SMILES: CC(=O)NC1=C2SS(=O)(=O)C=C2N(C)C1=O [thiolutin dioxide]
